From PMC7093131, “Structural and Biomolecular Analyses of Borrelia burgdorferi BmpD Reveal a Substrate-Binding Protein of an ABC-Type Nucleoside Transporter Family” (Infection and Immunity, 2020)

Target: T1, BmpD (rBmpD; LF-rBmpD) (Borreliella burgdorferi, UniProt P0CL55)
T1 construct: signal peptide (residues 1 to 17) removed; N-terminal hexahistidine tag (pET-30a(+)) kept; E. coli BL21(DE3)pLys; 39 kDa; monomer; printed end 323 may be in mature count
T1 sequence (P0CL55 18-341): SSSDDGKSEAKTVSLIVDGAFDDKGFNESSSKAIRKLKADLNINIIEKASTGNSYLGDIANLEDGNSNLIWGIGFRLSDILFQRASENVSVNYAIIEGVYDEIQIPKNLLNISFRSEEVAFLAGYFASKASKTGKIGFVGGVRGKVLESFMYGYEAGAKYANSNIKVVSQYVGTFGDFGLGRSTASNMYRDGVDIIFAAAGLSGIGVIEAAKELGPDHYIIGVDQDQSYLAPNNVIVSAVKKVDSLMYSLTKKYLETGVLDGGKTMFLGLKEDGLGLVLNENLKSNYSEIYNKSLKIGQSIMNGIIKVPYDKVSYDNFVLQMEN
Assay: X-ray crystal structure ([…] A) with LC-MS of co-purified ligand; label-free MST on refolded LF-rBmpD
Assay type: binding
Details: endogenously bound from E. coli expression, crystals at pH 8.0; MST: 500 nM refolded ligand-free protein, single experiment, no Kd displayed

## Nc1ncnc2c1ncn2[C@@H]1O[C@H](CO)[C@@H](O)[C@H]1O [adenosine]
  X-ray crystal structure (1.43 A) with LC-MS of co-purified ligand; label-free MS: the ligand was a purine nucleoside, which was confirmed to be an adenosine
